Measured values published in patent publication US20020137929A1, “1 - (3-heterocyclylphenyl) isothiourea, -isourea, -guanidine and -amidine herbicidal agents” (Intellectual Property Department, BASF Aktiengesellschaft, priority 1998, published 2002).

What was measured:
[1] = test system: GLXMAW (Soybean, Williams); test: Preemergence herbicidal evaluation; type: in vivo, Glycine max, (L.) Merr. cv Williams; conditions: rated 4-5 weeks after treatment
How it was run: (§1)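 Seeds were planted in potting soil in cups, then sprayed preemergence with the test compound in aqueous acetone at about 0.0156 to 0.500 kg per hectare. Cups were kept under greenhouse conditions and visually rated 4–5 weeks after treatment on a 0–9 scale against an untreated control.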

[2] = test system: TRZAWR (Wheat, Winter, cv Riband); test: Preemergence herbicidal evaluation; type: in vivo, Triticum aestivum; conditions: rated 4-5 weeks after treatment
How it was run: as §1

[3] = test system: SAGPY (Arrowhead (Pygmaea)); test: Preemergence weed control under flooded paddy conditions; type: in vivo, Sagittaria pygmaea; conditions: rated 3-4 weeks after treatment
How it was run: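 Using flooded silt loam (water 1.5 to 3 cm deep), seeds sown in the top 0.5 cm were exposed preemergence to compound pipetted into the flood at about 0.0313 to 0.500 kg/ha. Effects were scored 0-9 by eye three to four weeks later.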

ORYSAT (Rice, Tebonnet) = test: Preemergence herbicidal evaluation; type: in vivo, Oryza sativa, (L.) Tebonnet; conditions: rated 4-5 weeks after treatment
How it was run: as §1

CASOB (Sicklepod) = test: Postemergence herbicidal evaluation; type: in vivo, Cassia obtusifolia; conditions: postemergence
How it was run: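 First, seedlings were raised for around two weeks. Next, test material in 50/50 acetone/water containing 0.5% TWEEN 20 was sprayed through a nozzle at 40 psi, equivalent to about 0.0156–0.500 kg/ha. Finally, after 4–5 weeks in the greenhouse, plants were rated 0–9.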

[4] = rate 0.0313 kg/ha, rating scale 0-9
[5] = rate 0.0625 kg/ha, rating scale 0-9
[6] = rate 0.1250 kg/ha, rating scale 0-9
[7] = rate 0.2500 kg/ha, rating scale 0-9

Structure (SMILES): Cn1c(C(F)(F)F)cc(=O)n(-c2cc(N=C3SCC(=O)N3Cc3ccccc3Cl)c(Cl)cc2F)c1=O [Compound 143]
- Preemergence herbicidal rating GLXMAW [1, 4]: 0.0
- Preemergence herbicidal rating GLXMAW [1, 5]: 0.0
- Preemergence herbicidal rating GLXMAW [1, 6]: 0.0
- Preemergence herbicidal rating GLXMAW [1, 7]: 1.0
- Preemergence herbicidal rating TRZAWR [2, 4]: 0.0
- Preemergence herbicidal rating TRZAWR [2, 5]: 0.0
- Preemergence herbicidal rating TRZAWR [2, 6]: 0.0
- Preemergence herbicidal rating TRZAWR [2, 7]: 1.0
- herbicidal effect rating, SAGPY ([3]; 0.0313 kg/ha): 0.0
- herbicidal effect rating, SAGPY ([3]; 0.0625 kg/ha): 0.0
- herbicidal effect rating, SAGPY ([3]; 0.1250 kg/ha): 0.0
- herbicidal effect rating, SAGPY ([3]; 0.2500 kg/ha): 5.0
- Preemergence herbicidal rating ORYSAT (ORYSAT (Rice, Tebonnet); [4]): 0.0
- Preemergence herbicidal rating ORYSAT (ORYSAT (Rice, Tebonnet); [5]): 0.0
- Preemergence herbicidal rating ORYSAT (ORYSAT (Rice, Tebonnet); [6]): 0.0
- Preemergence herbicidal rating ORYSAT (ORYSAT (Rice, Tebonnet); [7]): 1.0
- herbicidal rating CASOB (CASOB (Sicklepod); rate 0.0156 kg/ha): 0.0
- herbicidal rating CASOB (CASOB (Sicklepod); rate 0.0313 kg/ha): 1.0
- herbicidal rating CASOB (CASOB (Sicklepod); rate 0.0625 kg/ha): 3.0

Structure (SMILES): Cn1c(C(F)(F)F)cc(=O)n(-c2cc(N=C3SCC(=O)N3CC(=O)OCC3CC3)c(Cl)cc2F)c1=O [Compound 124, Cyclopropylmethyl 2-{{2-chloro-5-[3,6-dihydro-3-methyl-2,6-dioxo-4-(trifluoromethyl)-1(2H)-pyrimidinyl]-4-fluorophenyl}imino}-4-oxo-3-thiazolidineacetate]
- Preemergence herbicidal rating GLXMAW ([1]; rate 0.0156 kg/ha): 0.0
- Preemergence herbicidal rating GLXMAW ([1]; rate 0.0313 kg/ha): 0.0
- Preemergence herbicidal rating GLXMAW ([1]; rate 0.0625 kg/ha): 0.0
- Preemergence herbicidal rating GLXMAW ([1]; rate 0.1250 kg/ha): 0.0
- Preemergence herbicidal rating GLXMAW ([1]; rate 0.2500 kg/ha): 0.0
- Preemergence herbicidal rating GLXMAW ([1]; rate 0.5000 kg/ha): 3.0
- Preemergence herbicidal rating TRZAWR ([2]; rate 0.0156 kg/ha): 0.0
- Preemergence herbicidal rating TRZAWR ([2]; rate 0.0313 kg/ha): 0.0
- Preemergence herbicidal rating TRZAWR ([2]; rate 0.0625 kg/ha): 0.0
- Preemergence herbicidal rating TRZAWR ([2]; rate 0.1250 kg/ha): 0.0
- Preemergence herbicidal rating TRZAWR ([2]; rate 0.2500 kg/ha): 0.0
- Preemergence herbicidal rating TRZAWR ([2]; rate 0.5000 kg/ha): 0.0
- herbicidal effect rating, SAGPY ([3]; 0.0313 kg/ha): 0.0
- herbicidal effect rating, SAGPY ([3]; 0.0625 kg/ha): 0.0
- herbicidal effect rating, SAGPY ([3]; 0.1250 kg/ha): 4.0
- herbicidal effect rating, SAGPY ([3]; 0.2500 kg/ha): 5.0
- Preemergence herbicidal rating ORYSAT (ORYSAT (Rice, Tebonnet); rate 0.0156 kg/ha): 0.0
- Preemergence herbicidal rating ORYSAT (ORYSAT (Rice, Tebonnet); rate 0.0313 kg/ha): 0.0
- Preemergence herbicidal rating ORYSAT (ORYSAT (Rice, Tebonnet); rate 0.0625 kg/ha): 0.0
- Preemergence herbicidal rating ORYSAT (ORYSAT (Rice, Tebonnet); rate 0.1250 kg/ha): 0.0
- Preemergence herbicidal rating ORYSAT (ORYSAT (Rice, Tebonnet); rate 0.2500 kg/ha): 0.0
- Preemergence herbicidal rating ORYSAT (ORYSAT (Rice, Tebonnet); rate 0.5000 kg/ha): 2.0
- herbicidal rating CASOB (CASOB (Sicklepod); rate 0.0156 kg/ha): 2.0
- herbicidal rating CASOB (CASOB (Sicklepod); rate 0.0313 kg/ha): 2.0
- herbicidal rating CASOB (CASOB (Sicklepod); rate 0.0625 kg/ha): 3.0

Structure (SMILES): Cn1c(C(F)(F)F)cc(=O)n(-c2cc(N=C3SCC(=O)N3CC(F)(F)F)c(Cl)cc2F)c1=O [Compound 163, 3-{4-Chloro-2-fluoro-5-{[4-oxo-3-(2,2,2-trifluoroethyl)-2-thiazolidinylidene]amino}phenyl}-1-methyl-6-(trifluoromethyl)-2,4(1H,3H)-pyrimidinedione]
- Preemergence herbicidal rating GLXMAW ([1]; 0.0156 kg/ha): 0.0
- Preemergence herbicidal rating GLXMAW ([1]; 0.0313 kg/ha): 2.0
- Preemergence herbicidal rating GLXMAW ([1]; 0.0625 kg/ha): 3.0
- Preemergence herbicidal rating GLXMAW ([1]; 0.1250 kg/ha): 3.0
- Preemergence herbicidal rating GLXMAW ([1]; 0.2500 kg/ha): 5.0
- Preemergence herbicidal rating TRZAWR ([2]; 0.0156 kg/ha): 0.0
- Preemergence herbicidal rating TRZAWR ([2]; 0.0313 kg/ha): 0.0
- Preemergence herbicidal rating TRZAWR ([2]; 0.0625 kg/ha): 3.0
- Preemergence herbicidal rating TRZAWR ([2]; 0.1250 kg/ha): 7.0
- Preemergence herbicidal rating TRZAWR ([2]; 0.2500 kg/ha): 7.0
- herbicidal effect rating, SAGPY ([3]; 0.0313 kg/ha): 2.0
- herbicidal effect rating, SAGPY ([3]; 0.0625 kg/ha): 3.0
- herbicidal effect rating, SAGPY ([3]; 0.1250 kg/ha): 6.0
- herbicidal effect rating, SAGPY ([3]; 0.2500 kg/ha): 7.0
- Preemergence herbicidal rating ORYSAT (ORYSAT (Rice, Tebonnet); 0.0156 kg/ha): 1.0
- Preemergence herbicidal rating ORYSAT (ORYSAT (Rice, Tebonnet); 0.0313 kg/ha): 3.0
- Preemergence herbicidal rating ORYSAT (ORYSAT (Rice, Tebonnet); 0.0625 kg/ha): 5.0
- Preemergence herbicidal rating ORYSAT (ORYSAT (Rice, Tebonnet); 0.1250 kg/ha): 7.0
- Preemergence herbicidal rating ORYSAT (ORYSAT (Rice, Tebonnet); 0.2500 kg/ha): 8.0
- herbicidal rating CASOB (CASOB (Sicklepod); rate 0.0156 kg/ha): 0.0
- herbicidal rating CASOB (CASOB (Sicklepod); rate 0.0313 kg/ha): 0.0
- herbicidal rating CASOB (CASOB (Sicklepod); rate 0.0625 kg/ha): 3.0
